Source: patent US11174268B2, “Benzenesulfonamide compouds and their use as therapeutic agents” (Xenon Pharmaceuticals Inc., priority 2016, dated 2021)
Counter-ions that a name gives are not always drawn. Like-named read-outs stand apart in the source and are kept apart here.

Assays:
NaV1.5 = NaV1.5 (Homo sapiens (Human), UniProt Q14524); experiment: Sodium Influx Assay (Flux), NaV1.5
NaV1.6 = NaV1.6 (Homo sapiens (Human), UniProt Q9UQD0); experiment: Sodium Influx Assay (Flux), NaV1.6; type: cell-based; details: Trex HEK293 cells, ANG2 dye, inactivated state;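 further: Tetracycline-induced cells, compounds applied for one hour at room temperature with modulators holding channels open, IC50 from percent inhibition of sodium influx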
NaV1.1 = NaV1.1 (Homo sapiens (Human), UniProt P35498); experiment: Sodium Influx Assay (Flux), NaV1.1; type: cell-based; details: Trex HEK293 cells, ANG2 dye, inactivated state;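 further: channels co-expressed with human β1 subunit and held open by modulators, cells exposed to compounds for one hour at room temperature, IC50 from percent inhibition of influx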
[1] = read-out: Flux NaV1.5 IC50, Trex HEK293 cells, ANG2 dye, inactivated state

NaV1.5, sequence (Q14524 other isoform, or with tags, fused parts or gaps): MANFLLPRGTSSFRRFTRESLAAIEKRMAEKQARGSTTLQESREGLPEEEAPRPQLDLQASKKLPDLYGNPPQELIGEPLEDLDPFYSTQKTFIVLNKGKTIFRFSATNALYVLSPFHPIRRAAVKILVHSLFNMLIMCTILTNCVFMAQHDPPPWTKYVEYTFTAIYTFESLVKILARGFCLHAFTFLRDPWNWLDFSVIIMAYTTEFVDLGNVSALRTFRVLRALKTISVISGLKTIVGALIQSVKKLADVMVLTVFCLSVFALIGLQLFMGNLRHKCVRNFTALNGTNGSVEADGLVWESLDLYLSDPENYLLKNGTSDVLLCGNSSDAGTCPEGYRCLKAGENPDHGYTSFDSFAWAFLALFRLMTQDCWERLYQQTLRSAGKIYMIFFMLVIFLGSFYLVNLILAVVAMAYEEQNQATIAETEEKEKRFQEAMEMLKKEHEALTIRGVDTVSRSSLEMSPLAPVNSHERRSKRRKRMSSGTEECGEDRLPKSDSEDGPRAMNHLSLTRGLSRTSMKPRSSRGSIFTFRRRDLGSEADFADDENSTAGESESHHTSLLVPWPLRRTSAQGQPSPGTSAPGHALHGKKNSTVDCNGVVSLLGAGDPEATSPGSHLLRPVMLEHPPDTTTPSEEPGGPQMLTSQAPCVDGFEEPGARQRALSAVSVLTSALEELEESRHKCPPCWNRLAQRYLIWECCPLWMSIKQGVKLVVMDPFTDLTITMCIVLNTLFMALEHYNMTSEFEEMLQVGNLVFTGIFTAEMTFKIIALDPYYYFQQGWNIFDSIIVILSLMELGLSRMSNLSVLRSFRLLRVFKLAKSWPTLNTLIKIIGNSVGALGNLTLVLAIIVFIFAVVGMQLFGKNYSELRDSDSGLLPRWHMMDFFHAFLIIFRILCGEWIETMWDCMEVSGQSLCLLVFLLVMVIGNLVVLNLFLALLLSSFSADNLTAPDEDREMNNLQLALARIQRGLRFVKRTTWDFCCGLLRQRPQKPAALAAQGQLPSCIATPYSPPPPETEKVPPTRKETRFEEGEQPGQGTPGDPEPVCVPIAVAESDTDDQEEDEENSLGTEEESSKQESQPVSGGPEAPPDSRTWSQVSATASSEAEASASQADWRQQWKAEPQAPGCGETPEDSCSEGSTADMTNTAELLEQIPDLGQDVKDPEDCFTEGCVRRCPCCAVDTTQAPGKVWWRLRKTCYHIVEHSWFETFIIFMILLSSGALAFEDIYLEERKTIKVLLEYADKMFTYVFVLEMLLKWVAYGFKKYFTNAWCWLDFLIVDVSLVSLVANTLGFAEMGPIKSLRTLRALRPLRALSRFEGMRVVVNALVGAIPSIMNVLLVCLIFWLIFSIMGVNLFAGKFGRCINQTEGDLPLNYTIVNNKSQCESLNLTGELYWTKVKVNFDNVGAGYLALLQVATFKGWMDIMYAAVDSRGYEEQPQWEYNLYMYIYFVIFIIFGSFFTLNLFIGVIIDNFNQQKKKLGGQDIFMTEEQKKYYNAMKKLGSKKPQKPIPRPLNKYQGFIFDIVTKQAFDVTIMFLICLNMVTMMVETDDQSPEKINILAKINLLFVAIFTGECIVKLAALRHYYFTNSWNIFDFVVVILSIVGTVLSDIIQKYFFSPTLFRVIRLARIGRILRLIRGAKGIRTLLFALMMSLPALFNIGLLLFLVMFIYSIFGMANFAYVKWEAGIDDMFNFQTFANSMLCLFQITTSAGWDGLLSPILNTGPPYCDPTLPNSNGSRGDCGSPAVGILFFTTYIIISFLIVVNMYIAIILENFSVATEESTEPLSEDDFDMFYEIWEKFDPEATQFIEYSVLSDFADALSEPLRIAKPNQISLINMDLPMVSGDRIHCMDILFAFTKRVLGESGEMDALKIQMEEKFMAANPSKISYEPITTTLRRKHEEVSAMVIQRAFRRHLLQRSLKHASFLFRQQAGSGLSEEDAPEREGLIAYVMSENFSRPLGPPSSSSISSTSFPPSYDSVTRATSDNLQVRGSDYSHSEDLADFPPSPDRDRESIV

Row | IC50 (NaV1.6) | IC50 (NaV1.1) | Compound | IC50 (NaV1.5; [1]) | IC50 (NaV1.5)
1 | 0.046 µM | 5.4 µM | O=S(=O)(Nc1cscn1)c1c(F)cc(NCc2c(F)cccc2CNC2CCC2)cc1F [Example 177, 4-((2-((cyclobutylamino)methyl)-6-fluorobenzyl)amino)-2,6-difluoro-N-(thiazol-4-yl)benzenesulfonamide formate] | 22.3 µM | 
2 | 0.265 µM | 13.4 µM | CC(C)(C)NCc1cccc(F)c1CNc1cc(F)c(S(=O)(=O)Nc2cscn2)c(F)c1 [Example 178, 4-((2-((tert-butylamino)methyl)-6-fluorobenzyl)amino)-2,6-difluoro-N-(thiazol-4-yl)benzenesulfonamide formate] | 30 µM | 
3 | 0.08 µM | 4.6 µM | CN(Cc1cccc(F)c1CNc1cc(F)c(S(=O)(=O)Nc2cscn2)c(F)c1)C1CCC1 [Example 179, 4-((2-((cyclobutyl(methyl)amino)methyl)-6-fluorobenzyl)amino)-2,6-difluoro-N-(thiazol-4-yl)benzenesulfonamide formate] | 6.42 µM | 
4 | 0.166 µM | 22.1 µM | CC1(F)CN(Cc2cccc(F)c2CNc2cc(F)c(S(=O)(=O)Nc3cscn3)c(F)c2)C1 [Example 180, 2,6-difluoro-4-((2-fluoro-6-((3-fluoro-3-methylazetidin-1-yl)methyl)benzyl)amino)-N-(thiazol-4-yl)benzenesulfonamide formate] | 24.2 µM | 
5 | 2.96 µM | 10.6 µM | CN(Cc1cccc(F)c1CNc1cc(F)c(S(=O)(=O)Nc2cscn2)c(F)c1)C1COC1 [Example 181, 2,6-difluoro-4-((2-fluoro-6-((methyl(oxetan-3-yl)amino)methyl)benzyl)amino)-N-(thiazol-4-yl)benzenesulfonamide formate] | 30 µM | 
6 | 0.036 µM | 30 µM | CCN(CC)Cc1cccc(F)c1CNc1cc(F)c(S(=O)(=O)Nc2cscn2)c(F)c1 [Example 183, 4-((2-((diethylamino)methyl)-6-fluorobenzyl)amino)-2,6-difluoro-N-(thiazol-4-yl)benzenesulfonamide formate] | 28 µM | 
7 | 0.332 µM | ≥ 30 µM | CCC(C)(C)N(C)Cc1cccc(F)c1CNc1cc(F)c(S(=O)(=O)Nc2cscn2)c(F)c1 [Example 184, 2,6-difluoro-4-((2-fluoro-6-((methyl(tert-pentyl)amino)methyl)benzyl)amino)-N-(thiazol-4-yl)benzenesulfonamide formate] |  | ≥ 30 µM
8 | 0.522 µM | 30 µM | CN(Cc1cccc(F)c1CNc1cc(F)c(S(=O)(=O)Nc2ccsn2)c(F)c1)C(C)(C)C [Example 189, 4-((2-((tert-butyl(methyl)amino)methyl)-6-fluorobenzyl)amino)-2,6-difluoro-N-(isothiazol-3-yl)benzenesulfonamide formate] | 30 µM | 
9 | 7.49 µM | 8.85 µM | O=S(=O)(Nc1cscn1)c1cc(Cl)c(NCc2cc(F)c(F)cc2CN2CCC2)cc1F [Example 193, 4-((2-(azetidin-1-ylmethyl)-4,5-difluorobenzyl)amino)-5-chloro-2-fluoro-N-(thiazol-4-yl)benzenesulfonamide formate] | 26.7 µM | 
10 | 0.688 µM | 27.2 µM | O=S(=O)(Nc1cscn1)c1c(F)cc(NCc2cc(CN3CCC3)ccc2F)cc1F [Example 195, 4-((5-(azetidin-1-ylmethyl)-2-fluorobenzyl)amino)-2,6-difluoro-N-(thiazol-4-yl)benzenesulfonamide formate] | 30 µM | 
11 | 0.187 µM | 25.9 µM | O=S(=O)(Nc1cscn1)c1c(F)cc(NCc2cccc(F)c2CN2CCC2)cc1F [Example 196, 4-((2-(azetidin-1-ylmethyl)-3-fluorobenzyl)amino)-2,6-difluoro-N-(thiazol-4-yl)benzenesulfonamide 2,2,2-trifluoroacetate] | 30 µM | 
12 | 0.023 µM | 12 µM | O=S(=O)(Nc1cscn1)c1c(F)cc(NCc2cccc(F)c2CN2CCC2)c(Cl)c1F [Example 197, 4-((2-(azetidin-1-ylmethyl)-3-fluorobenzyl)amino)-3-chloro-2,6-difluoro-N-(thiazol-4-yl)benzenesulfonamide 2,2,2-trifluoroacetate] | 27.6 µM | 
13 | 0.213 µM | 4.08 µM | CC1(C)CCN1Cc1cccc(Cl)c1CNc1cc(F)c(S(=O)(=O)Nc2cscn2)c(F)c1 [Example 199, 4-((2-chloro-6-((2,2-dimethylazetidin-1-yl)methyl)benzyl)amino)-2,6-difluoro-N-(thiazol-4-yl)benzenesulfonamide formate] | 30 µM | 
14 | 0.496 µM | 4.43 µM | O=S(=O)(Nc1cccc(F)n1)c1cc(Cl)c(NCc2ccccc2CN2CCC2)cc1F [Example 200, 4-((2-(azetidin-1-ylmethyl)benzyl)amino)-5-chloro-2-fluoro-N-(6-fluoropyridin-2-yl)benzenesulfonamide] | 15.4 µM | 
15 | 0.561 µM | 30 µM | CC(C)N(C)Cc1cccc(F)c1CNc1cc(F)c(S(=O)(=O)Nc2ccon2)c(F)c1 [Example 201, 2,6-difluoro-4-((2-fluoro-6-((isopropyl(methyl)amino)methyl)benzyl)amino)-N-(isoxazol-3-yl)benzenesulfonamide 2,2,2-trifluoroacetate] | 30 µM | 
16 | 0.534 µM | 30 µM | CN(Cc1ccccc1CNc1cc(F)c(S(=O)(=O)Nc2cscn2)c(F)c1)C(C)(C)C [Example 202, 4-((2-((tert-butyl(methyl)amino)methyl)benzyl)amino)-2,6-difluoro-N-(thiazol-4-yl)benzenesulfonamide 2,2,2-trifluoroacetate] | 30 µM | 
17 | 0.225 µM | 26.6 µM | CN(Cc1cccc(F)c1CNc1ccc(S(=O)(=O)Nc2cscn2)c(F)c1F)C(C)(C)C [Example 203, 4-((2-((tert-butyl(methyl)amino)methyl)-6-fluorobenzyl)amino)-2,3-difluoro-N-(thiazol-4-yl)benzenesulfonamide 2,2,2-trifluoroacetate] | 28.3 µM | 
18 | 0.593 µM | 9.89 µM | C[C@H](Nc1cc(F)c(S(=O)(=O)Nc2ccncn2)c(F)c1)c1cc(F)ccc1F [Example 208, (S)-4-((1-(2,5-difluorophenyl)ethyl)amino)-2,6-difluoro-N-(pyrimidin-4-yl)benzenesulfonamide 2,2,2-trifluoroacetate] | 30 µM | 
19 | 0.416 µM | 3.75 µM | CCc1cccc(CN2CCC2)c1CNc1cc(F)c(S(=O)(=O)Nc2cscn2)c(F)c1 [Example 210, 4-((2-(azetidin-1-ylmethyl)-6-ethylbenzyl)amino)-2,6-difluoro-N-(thiazol-4-yl)benzenesulfonamide 2,2,2-trifluoroacetate] | 26.8 µM | 
20 | 1.76 µM | 3.38 µM | O=S(=O)(Nc1cscn1)c1c(F)cc(NCc2c(CN3CCC3)cccc2C2CC2)cc1F [Example 211, 4-((2-(azetidin-1-ylmethyl)-6-cyclopropylbenzyl)amino)-2,6-difluoro-N-(thiazol-4-yl)benzenesulfonamide 2,2,2-trifluoroacetate] | 19.2 µM | 
21 | 0.326 µM | 13.4 µM | COC(C)(C)C1CN(Cc2ccccc2CNc2cc(F)c(S(=O)(=O)Nc3cscn3)c(F)c2)C1 [Example 214, 2,6-difluoro-4-((2-((3-(2-methoxypropan-2-yl)azetidin-1-yl)methyl)benzyl)amino)-N-(thiazol-4-yl)benzenesulfonamide 2,2,2-trifluoroacetate] | 16.2 µM | 
22 | 3.12 µM | 30 µM | Cc1cc(NS(=O)(=O)c2c(F)cc(NCc3c(F)ccc(F)c3CN3CCC3)cc2F)no1 [Example 216, 4-((2-(azetidin-1-ylmethyl)-3,6-difluorobenzyl)amino)-2,6-difluoro-N-(5-methylisoxazol-3-yl)benzenesulfonamide 2,2,2-trifluoroacetate] | 30 µM | 
23 | 0.701 µM | 15.3 µM | CN(C)Cc1ccccc1C1(Nc2cc(F)c(S(=O)(=O)Nc3cscn3)cc2Cl)CC1 [Example 217, 5-chloro-4-((1-(2-((dimethylamino)methyl)phenyl)cyclopropyl)-amino)-2-fluoro-N-(thiazol-4-yl)benzenesulfonamide 2,2,2-trifluoroacetate] | 11.6 µM | 
24 | 3.21 µM | 28.4 µM | COCc1cccc(F)c1CNc1cc(F)c(S(=O)(=O)Nc2cscn2)cc1Cl [Example 218, 5-chloro-2-fluoro-4-((2-fluoro-6-(methoxymethyl)benzyl)amino)-N-(thiazol-4-yl)benzenesulfonamide] | 20.9 µM | 
25 | 0.28 µM | 30 µM | Cc1cc(S(=O)(=O)Nc2ccon2)c(F)cc1NCc1c(F)cccc1CN1CCC1 [Example 219, 4-((2-(azetidin-1-ylmethyl)-6-fluorobenzyl)amino)-2-fluoro-N-(isoxazol-3-yl)-5-methylbenzenesulfonamide] | 30 µM | 
26 | 0.193 µM | 2.12 µM | O=S(=O)(Nc1nccs1)c1cc(Cl)c(NC2(c3ccccc3F)CC2)cc1F [Example 220, 5-chloro-2-fluoro-4-((1-(2-fluorophenyl)cyclopropyl)amino)-N-(thiazol-2-yl)benzenesulfonamide] | 3.17 µM | 
27 | 4.66 µM | 25.4 µM | O=S(=O)(Nc1cscn1)c1cc(Cl)c(OC2(c3ccccc3)CC2)cc1F [Example 221, 5-chloro-2-fluoro-4-(1-phenylcyclopropoxy)-N-(thiazol-4-yl)benzenesulfonamide] | 19 µM | 

Row | Compound | IC50 (NaV1.6) | IC50 (NaV1.1) | IC50 (NaV1.5; [1]) | IC50 (NaV1.5)
28 | O=S(=O)(Nc1cscn1)c1c(F)cc(NCc2c(F)cccc2CN2CC3(CC3)C2)cc1F [Example 186, 4-((2-((5-azaspiro[2.3]hexan-5-yl)methyl)-6-fluorobenzyl)amino)-2,6-difluoro-N-(thiazol-4-yl)benzenesulfonamide formate] | 0.019 µM | 15.5 µM | 9.12 µM | 
